In patent US4504464A, “2,3-Dialkoxypropyl glyceryl ether and its preparation process as well as cosmetic composition containing same” (Kao Soap Co., Ltd., priority 1981, dated 1985):

What was measured:
[1] = Viscosity (27° C.); assay type: physicochemical
Protocol: (§1) Physical and chemical properties of the compound prepared in Example 1, which compound relates to the present invention, and an example of its application for cosmetic compositions will be described below.
(§2) Viscosity Water-solubility (25° )

[2] = Water-solubility (25° C.); assay type: physicochemical; settings: for Water-solubility (25° C.) 10%: 10% content of the diglycerin dialkyl ether; for Water-solubility (25° C.) 50%: 50% content of the diglycerin dialkyl ether
Protocol: as §1, §2
* Content (%) of the diglycerin dialkyl ether according to this invention
These figures will have the same significance in subsequent examples.

Row | Molecule | Viscosity (27° C.) [1] [cp] | Water-solubility (25° C.) 10% [2] | Water-solubility (25° C.) 50% [2]
1 | 2-butoxy-3-isostearoxypropyl glyceryl ether [Example 4] | 240 | – | –
2 | 2-methoxy-3-isostearoxypropyl glyceryl ether [Example 3] | 382 | – | –
3 | 2-octoxy-3-isostearoxypropyl glyceryl ether [Example 5] | 280 | Undissolved | Undissolved
4 | CCCCCCCCOCC(COCC(O)CO)OC (stereo not shown) [Example 1, 2-methoxy-3-octoxypropyl glyceryl ether] | 423 | Dissolved | Dissolved
5 | CCCCCCCCCCCCOCC(COCC(O)CO)OC (stereo not shown) [Example 2, 2-methoxy-3-dodecyloxypropyl glyceryl ether] | 504 | Dissolved | –
